Experimental data published in patent EP0139358B1, “N6-substituted diarylalkyl adenosines, processes for their production and pharmaceutical compositions comprising the same” (priority 1983, dated 1985).
Like-named read-outs stand apart in the source and are kept apart here.

What was measured:
Swiss-Webster male mice = assay: Mouse Activity and Screen Test (MAST): screen test (ST); format: in vivo; settings: lowest dose at which an A rating (60-100%) is achieved, screen test; intraperitoneally
Protocol: Treatments are administered intraperitoneally one hour prior to testing. […] Compounds are dissolved or suspended in 0.2% Methocel. Control animals are injected with Methocel.
The compounds are identified in the Examples.

[1] = test system: Long-Evans rats or squirrel-monkeys; assay: Antipsychotic lever-push shock avoidance protocol (SIDR); format: in vivo; settings: Rattus norvegicus, read-out: SIDR ED50
Protocol: Representative compounds of the invention (identified in the Examples) were also tested for antipsychotic activity according to the following protocol (SIDR). […] Mature male Long-Evans rats or squirrel-monkeys are conditioned to push a lever in order to avoid a painful electric footshock. If the animal fails to push the lever, he receives a shock every ten seconds until the lever is pushed. Shocks can be terminated by pushing the lever. Thereafter, as long as the lever is pushed at least once every 20 seconds, there will be no shock. Each animal acts as its own control; one weekly session is used to establish baseline behavior and another session later in the week is used as a drug session. Once patterns of avoidance are established, the effects of standard and unknown compounds are studied. All events are electronically programmed and the response to these events counted or used as feedback to the program.

rat heart = assay: Coronary blood flow (PCS2A): isolated perfused heart; settings: Rattus norvegicus

## OC[C@H]1O[C@@H](n2cnc3c(NCC(c4ccccc4)c4ccccc4)ncnc32)[C@H](O)[C@@H]1O [Example 1, N^6-(2,2-Diphenylethyl)adenosine]
Swiss-Webster male mice
  MAST ST LAD: >100 mg/kg
[1]
  ED50: 2.5 mg/kg
Rat heart; read-out: CF
  activation at 0.001 µM: 7%
  activation at 0.003 µM: 15%
  activation at 0.01 µM: 32%
  activation at 0.1 µM: 43%
  activation at 1 µM: 50%
Rat heart; read-out: PCS2A CF ED50
  EC50: 1 µM
Rat heart; read-out: PCS2A HR ED50
  EC50: 2 µM
